Paper PMC7756656, “Discovery of Homobivalent Bitopic Ligands of the Cannabinoid CB2 Receptor” (Chemistry (Weinheim an Der Bergstrasse, Germany), 2020)

Assays:
CB1R (hCB1R) [1] = target: T1, CB1R (hCB1R) (Homo sapiens, UniProt P21554); assay: biochemical; type: HEK-293T membranes; design: [3H]CP-55,940 competition radioligand binding, membrane filtration, scintillation counting
T1 construct: gene CNR1; expressed in HEK-293T cells; membrane fractions
Description: (§1) In vitro binding affinities of the alleged bitopic ligands 18–29 (Table 1) and the corresponding monovalent counterparts 6–17 (Table S1) were obtained from [^3H]CP‐55,940 competition‐binding assays using membrane fractions of the human CB1R and CB2R, respectively, expressed in HEK‐293T cells. […] Addition of the second pharmacophore makes bivalent ligands capable of binding CB2R in a selective manner. Optimal spacer length for N1‐ and N2‐ethyl derivatives is from 10 (n=8) to 14 (n=12) methylene units. S23 Aldrich, Madrid, Spain). Membranes were resuspended in the corresponding buffer and were incubated (90 min at 30 °C) with the radioligand and each compound at a high concentration (40 μM) with the purpose of determining the % of radioligand displacement. […] Nonspecific binding was determined with 10 μM WIN55212-2 (Sigma-Aldrich, Madrid, Spain) and total radioligand binding by incubation with the membranes in the absence of any compound. Filtration was performed by a Harvester filtermate (PerkinElmer, Boston, MA, USA) with Filtermat A GF/C filters pretreated with polyethylenimine 0.05%. After filtering, the filter was washed nine times with binding buffer and dried, and a melt-on scintillation sheet (MeltilexTM A, PerkinElmer, Boston, MA, USA) was melted onto it. Then, radioactivity was quantified by a liquid scintillation counter (Wallac MicroBeta Trilux, PerkinElmer, Boston, MA, USA). Competition binding data were analyzed by using GraphPad Prism, version 5.02 (GraphPad Software Inc., San Diego, CA, USA), and Ki values are expressed as the mean ± SEM of at least three experiments performed in triplicate for each. 2.2- cAMP determination assays. Determination of cAMP levels in HEK293 cells stably expressing the CB2R was performed using the Lance-Ultra cAMP kit (PerkinElmer) according to the manufacturer’s instructions. Briefly, HEK293 cells expressing the CB2R were dispensed in white 384-well microplates at a density of 5.000 cells per well. Finally, cells were incubated for 60 min at room temperature with HTRF assay reagents, and fluorescence at 665 nm was analyzed on a PHERAstar Flagship microplate reader equipped with an HTRF optical module (BMG Labtech). Data analysis was made based on the fluorescence ratio emitted by the labeled cAMP probe (665 nm) over the light emitted by the europium cryptate-labeled anti-cAMP antibody (620 nm). A standard curve was used to calculate cAMP concentration. Forskolin stimulated cAMP levels were normalized to 100%. Data was analyzed by using […]

CB2R (hCB2R) [2] = target: T2, CB2R (hCB2R) (Homo sapiens, UniProt P34972); assay: biochemical; type: HEK-293T membranes; design: [3H]CP-55,940 competition radioligand binding, membrane filtration, scintillation counting
T2 construct: gene CNR2; expressed in HEK-293T cells
T2 sequence (P34972 whole entry): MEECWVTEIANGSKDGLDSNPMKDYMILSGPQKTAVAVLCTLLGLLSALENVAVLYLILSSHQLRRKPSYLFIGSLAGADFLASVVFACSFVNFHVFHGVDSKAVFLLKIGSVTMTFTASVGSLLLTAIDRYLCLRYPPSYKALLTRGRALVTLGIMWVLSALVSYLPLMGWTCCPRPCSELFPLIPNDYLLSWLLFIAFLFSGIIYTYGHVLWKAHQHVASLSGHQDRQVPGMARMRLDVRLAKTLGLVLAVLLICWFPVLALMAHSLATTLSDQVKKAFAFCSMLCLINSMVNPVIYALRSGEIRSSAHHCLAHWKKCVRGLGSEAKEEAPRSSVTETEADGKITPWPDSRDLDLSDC
Description: as §1

CB2R (hCB2R) [3] = target: T2, CB2R (hCB2R); assay: [3H]CP-55, […] competition binding, HEK-293T membranes; conditions: read-out: CB2R Ki [μM]^[b]
CB1R (hCB1R) [4] = target: T1, CB1R (hCB1R); assay: as above; conditions: read-out: CB1R Ki [μM]^[b]
CB1R (hCB1R) [5] = target: T1, CB1R (hCB1R); assay: biochemical; type: HEK-293T membranes; design: [3H]CP-55,940 competition radioligand binding, membrane filtration, scintillation counting; remark: listed apart in the source
Description: as §1, with “[…]” for “methylene”, “[compound left out]” for “WIN55212-2”, “[…]” for “liquid”

CB2R (hCB2R) [6] = target: T2, CB2R (hCB2R); assay: biochemical; type: HEK-293T membranes; design: [3H]CP-55,940 competition radioligand binding, membrane filtration, scintillation counting; remark: listed apart in the source
Description: as §1, with “[…]” for “methylene”, “[compound left out]” for “WIN55212-2”, “[…]” for “liquid”

CB2R (hCB2R) [7] = target: T2, CB2R (hCB2R); assay: inhibition of forskolin-induced cAMP, HEK-293T cells; type: cell-based; conditions: read-out: Wild type / pEC50 (converted)

T1 sequence (P21554 whole entry): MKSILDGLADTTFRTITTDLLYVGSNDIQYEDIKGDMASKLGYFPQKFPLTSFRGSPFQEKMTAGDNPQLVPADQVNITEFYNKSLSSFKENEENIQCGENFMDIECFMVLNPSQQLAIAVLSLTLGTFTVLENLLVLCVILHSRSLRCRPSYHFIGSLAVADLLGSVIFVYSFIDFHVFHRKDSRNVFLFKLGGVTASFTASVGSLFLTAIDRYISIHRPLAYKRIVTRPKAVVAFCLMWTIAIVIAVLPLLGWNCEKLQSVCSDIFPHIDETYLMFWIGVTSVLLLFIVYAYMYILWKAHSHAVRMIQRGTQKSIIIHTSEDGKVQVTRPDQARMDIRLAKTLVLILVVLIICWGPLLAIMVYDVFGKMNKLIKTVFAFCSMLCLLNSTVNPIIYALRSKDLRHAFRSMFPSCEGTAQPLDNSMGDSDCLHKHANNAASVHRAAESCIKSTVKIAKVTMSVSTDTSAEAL

| SMILES | Ki (CB2R (hCB2R) [3]) [µM] | Ki (CB1R (hCB1R) [4]) [µM] | Ki (CB1R (hCB1R) [5]) [µM] | Ki (CB2R (hCB2R) [6]) [µM] | other results |
| --- | --- | --- | --- | --- | --- |
| CCCCCCCCCCCCCCCCOc1cc(C(C)(C)CCCCCC)cc2c1-c1nn(CC)cc1C(C)(C)O2 [compound 17, 17] | – | – | – | – | Ki (CB1R (hCB1R) [1]): > 40 µM; Ki (CB2R (hCB2R) [2]): > 40 µM |
| CCCCCCC(C)(C)c1cc(OCCCCCCCCCCCCCCCCOc2cc(C(C)(C)CCCCCC)cc3c2-c2nn(CC)cc2C(C)(C)O3)c2c(c1)OC(C)(C)c1cn(CC)nc1-2 [compound 29, bivalent chromenopyrazole 29 (R1 = N2-Et, n = 14)] | 2.12 ± 0.21 | > 40 | – | – | – |
| CCCCCCCCCCOc1cc(C(C)(C)CCCCCC)cc2c1-c1c(cnn1CC)C(C)(C)O2 [compound 10, 9-Decyloxy-7-(1,1-dimethylheptyl)-1-ethyl-1,4-dihydro-4,4-dimethylchromeno[4,3-c]pyrazole] | – | – | > 40 | > 40 | – |
| CCCCCCC(C)(C)c1cc(OCCCCCCCCCCCCCCOc2cc(C(C)(C)CCCCCC)cc3c2-c2c(cnn2CC)C(C)(C)O3)c2c(c1)OC(C)(C)c1cnn(CC)c1-2 [compound 26] | 0.8 ± 0.1 | > 40 | – | – | EC50 (CB2R (hCB2R) [7]): 0.316 µM |
| CCCCCCCCCCOc1cc(C(C)(C)CCCCCC)cc2c1-c1nn(CC)cc1C(C)(C)O2 [compound 11, 9-Decyloxy-7-(1,1-dimethylheptyl)-2-ethyl-2,4-dihydro-4,4-dimethylchromeno[4,3-c]pyrazole] | – | – | > 40 | > 40 | – |
| CCCCCCC(C)(C)c1cc(OCCCCCCCCOc2cc(C(C)(C)CCCCCC)cc3c2-c2c(cnn2CC)C(C)(C)O3)c2c(c1)OC(C)(C)c1cnn(CC)c1-2 [compound 20, bivalent chromenopyrazole 20 (R1 = N1-Et, n = 6)] | 2.2 ± 0.7 | > 40 | – | – | – |
| CCCCCCCCOc1cc(C(C)(C)CCCCCC)cc2c1-c1c(cnn1CC)C(C)(C)O2 [compound 8, 7-(1,1-Dimethylheptyl)-1-ethyl-1,4-dihydro-4,4-dimethyl-9-octyloxychromeno[4,3-c]pyrazole] | – | – | > 40 | > 40 | – |
| CCCCCCC(C)(C)c1cc(OCCCCCCCCCCCCOc2cc(C(C)(C)CCCCCC)cc3c2-c2nn(CC)cc2C(C)(C)O3)c2c(c1)OC(C)(C)c1cn(CC)nc1-2 [compound 25, bivalent chromenopyrazole 25 (R1 = N2-Et, n = 10)] | 0.3 ± 0.1 | > 40 | – | – | EC50 (CB2R (hCB2R) [7]): 0.0631 µM |
| CCCCCCCCCCCCOc1cc(C(C)(C)CCCCCC)cc2c1-c1nn(CC)cc1C(C)(C)O2 [compound 13, 7-(1,1-Dimethylheptyl)-9-dodecyloxy-2-ethyl-2,4-dihydro-4,4-dimethylchromeno[4,3-c]pyrazole] | – | – | > 40 | > 40 | – |
| CCCCCCCCCCCCCCOc1cc(C(C)(C)CCCCCC)cc2c1-c1c(cnn1CC)C(C)(C)O2 [compound 14, 7-(1,1-Dimethylheptyl)-1-ethyl-1,4-dihydro-4,4-dimethyl-9-tetradecyloxychromeno[4,3-c]pyrazole] | – | – | > 40 | > 40 | – |
| CCCCCCOc1cc(C(C)(C)CCCCCC)cc2c1-c1nn(CC)cc1C(C)(C)O2 [compound 7, 7-(1,1-Dimethylheptyl)-2-ethyl-9-hexyloxy-2,4-dihydro-4,4-dimethylchromeno[4,3-c]pyrazole] | – | – | > 40 | > 40 | – |
| CCCCCCCCCCCCCCCCOc1cc(C(C)(C)CCCCCC)cc2c1-c1c(cnn1CC)C(C)(C)O2 [compound 16, 7-(1,1-Dimethylheptyl)-1-ethyl-9-hexadecyloxy-1,4-dihydro-4,4-dimethylchromeno[4,3-c]pyrazole] | – | – | > 40 | > 40 | – |
| CCCCCCOc1cc(C(C)(C)CCCCCC)cc2c1-c1c(cnn1CC)C(C)(C)O2 [compound 6, 7-(1,1-Dimethylheptyl)-1-ethyl-9-hexyloxy1,4-Dihydro-4,4-dimethylchromeno[4,3-c]pyrazole] | – | – | > 40 | > 40 | – |
| CCCCCCCCCCCCCCOc1cc(C(C)(C)CCCCCC)cc2c1-c1nn(CC)cc1C(C)(C)O2 [compound 15, 15] | – | – | – | – | Ki (CB1R (hCB1R) [1]): > 40 µM; Ki (CB2R (hCB2R) [2]): > 40 µM |
| CCCCCCC(C)(C)c1cc(OCCCCCCOc2cc(C(C)(C)CCCCCC)cc3c2-c2nn(CC)cc2C(C)(C)O3)c2c(c1)OC(C)(C)c1cn(CC)nc1-2 [compound 19, bivalent chromenopyrazole 19 (R1 = N2-Et, n = 4)] | 12.4 ± 2 | > 40 | – | – | – |
| CCCCCCC(C)(C)c1cc(OCCCCCCCCCCOc2cc(C(C)(C)CCCCCC)cc3c2-c2nn(CC)cc2C(C)(C)O3)c2c(c1)OC(C)(C)c1cn(CC)nc1-2 [compound 23, bivalent chromenopyrazole 23 (R1 = N2-Et, n = 8)] | 5.8 ± 1.5 | > 40 | – | – | – |
| CCCCCCCCCCCCOc1cc(C(C)(C)CCCCCC)cc2c1-c1c(cnn1CC)C(C)(C)O2 [compound 12, 7-(1,1-Dimethylheptyl)-9-dodecyloxy-1-ethyl-1,4-dihydro-4,4-dimethylchromeno[4,3-c]pyrazole] | – | – | > 40 | > 40 | – |
| CCCCCCCCOc1cc(C(C)(C)CCCCCC)cc2c1-c1nn(CC)cc1C(C)(C)O2 [compound 9, 7-(1,1-Dimethylheptyl)-2-ethyl-2,4-dihydro-4,4-dimethyl-9-octyloxychromeno[4,3-c]pyrazole] | – | – | > 40 | > 40 | – |
| CCCCCCC(C)(C)c1cc(OCCCCCCOc2cc(C(C)(C)CCCCCC)cc3c2-c2c(cnn2CC)C(C)(C)O3)c2c(c1)OC(C)(C)c1cnn(CC)c1-2 [compound 18, bivalent chromenopyrazole 18 (R1 = N1-Et, n = 4)] | 28.1 ± 1.6 | > 40 | – | – | – |
| CCCCCCC(C)(C)c1cc(OCCCCCCCCCCCCOc2cc(C(C)(C)CCCCCC)cc3c2-c2c(cnn2CC)C(C)(C)O3)c2c(c1)OC(C)(C)c1cnn(CC)c1-2 [compound 24, bivalent chromenopyrazole 24 (R1 = N1-Et, n = 10)] | 0.4 ± 0.14 | > 40 | – | – | EC50 (CB2R (hCB2R) [7]): 0.0631 µM |
